Measured values from patent US12522623B2, “Small molecule STAT protein degraders” (THE REGENTS OF THE UNIVERSITY OF MICHIGAN, priority 2020, dated 2026).

Columns and labels:
STAT3 = biological target: T1, STAT3 (Homo sapiens, UniProt P40763); experiment: Fluorescent immunoblotting of STAT3 protein in MOLM-16 cells (estimated DC50); type: cell-based; conditions: MOLM-16, 4 h
T1 construct: endogenous in cells; host or cells: MOLM-16 (acute leukemia cells)
Experimental: In vitro cultured cells or xenograft tumors were lysed 1×Cell Lysis Buffer (Cell Signaling Technology, #9803), resolved by SDS-PAGE NuPAGE gel (Thermo Fisher Scientific), and transferred to a PVDF membrane (Bio Rad). For chemiluminescence immunoblotting, membranes were blocked for 1 h using 5% Blotting-Grade Blocker (#1706404, Bio Rad) in 1×Tris-buffered saline with Tween 20 (TBST, Pierce). Antibodies used were: rabbit mAbs for STAT3 (Cell Signaling Technology, #4368, #12640) and p-STAT3 (Y705) (Cell Signaling Technology, #9245, #52075). HRP conjugated goat anti-rabbit IgG (H+L) (#A27036) secondary antibodies was from Thermo Fisher Scientific. GAPDH (Santa Cruz Technology, sc-47724HRP) and actin (Santa Cruz Technology, sc-8432HRP, sc-47778HRP) were loading controls. For fluorescent immunoblotting, membranes were blocked using Odyssey TBS Blocker Buffer (LI-COR). IRDye 680RD and 800CW Dye-labeled secondary antibodies (LI-COR) were used. The washed membranes were scanned using Odyssey CLx imager (LI-COR). The intensity of Western blot signaling was quantitated using the Odyssey software or Image Studio V5.2 (LI-COR).

MOLM-16 cells = experiment: Cell growth inhibition, 4-day proliferation assay (CellTiter-Glo); type: cell-based; conditions: MOLM16, 96 h; MOLM-16, 4 days
Experimental: The effect of representative Compounds of the Disclosure on cell viability was determined in a 4-day proliferation assay. Cells were maintained in the appropriate culture medium at 37° C. and an atmosphere of 5% CO2. All the cell lines were used within three months of thawing fresh vials. Cells were seeded in 384-well white plates (Corning Costar) at a density of 2,000 cells/well in 25 μl of culture medium. Compounds were serially diluted in the appropriate medium, and 25 μl of the diluted compounds were added to the cells. After the addition of compounds, the cells were incubated at 37° C. in an atmosphere of 5% CO2 for 4 days. Cell viability was determined using the CellTiter-Glo® Luminescent Cell Viability Assay Kit (Promega, Madison, WI) according to the manufacturers' instructions. Essentially, 50 μl of CellTiter-Glo® Reagent was added to each well, and then the plates were incubated at room temperature for 20 minutes. The luminescent signal was measured using a Tecan multimode microplate reader (Tecan, Morrisville, NC). The readings were normalized to the DMSO-treated cells and the IC50 was calculated by nonlinear regression (four parameters sigmoid fitted with variable slope, least squares fit, and no constraint) analysis using the GraphPad Prism software.

T1 sequence (P40763 whole entry): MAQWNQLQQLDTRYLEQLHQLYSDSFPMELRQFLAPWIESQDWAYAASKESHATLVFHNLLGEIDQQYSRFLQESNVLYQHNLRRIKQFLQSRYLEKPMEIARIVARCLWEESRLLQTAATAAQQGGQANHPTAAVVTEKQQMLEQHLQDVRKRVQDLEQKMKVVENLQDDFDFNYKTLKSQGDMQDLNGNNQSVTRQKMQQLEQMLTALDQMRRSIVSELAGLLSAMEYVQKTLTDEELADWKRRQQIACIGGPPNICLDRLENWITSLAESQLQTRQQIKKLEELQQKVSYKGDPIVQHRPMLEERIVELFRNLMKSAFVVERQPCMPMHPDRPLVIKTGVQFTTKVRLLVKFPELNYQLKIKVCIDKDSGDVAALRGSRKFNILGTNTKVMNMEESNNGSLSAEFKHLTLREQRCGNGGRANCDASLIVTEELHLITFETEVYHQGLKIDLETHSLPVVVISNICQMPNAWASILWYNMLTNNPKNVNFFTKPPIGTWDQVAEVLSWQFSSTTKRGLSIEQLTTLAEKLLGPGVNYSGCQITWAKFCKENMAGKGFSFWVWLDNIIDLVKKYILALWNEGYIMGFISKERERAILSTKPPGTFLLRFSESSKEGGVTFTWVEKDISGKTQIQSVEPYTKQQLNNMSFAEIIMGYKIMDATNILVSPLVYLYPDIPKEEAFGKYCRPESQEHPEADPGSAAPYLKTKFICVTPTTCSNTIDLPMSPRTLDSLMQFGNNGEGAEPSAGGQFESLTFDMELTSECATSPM

Compound	DC50 (STAT3)	IC50 (MOLM-16 cells)
NC(=O)CC[C@H](NC(=O)[C@@H]1CC[C@@H]2CCN(C(=O)CCCCCC#Cc3cccc4c3CN(C3CCC(=O)NC3=O)C4=O)C[C@H](NC(=O)c3cc4cc(C(F)(F)P(=O)(O)O)ccc4s3)C(=O)N21)c1nc(Cc2ccccc2)cs1 (stereo partly drawn) [Cpd. No. 3, ((2-(((5S,8S,10aR)-8-(((S)-4-amino-1-(4-benzylthiazol-2-yl)-4-oxobutyl)carbamoyl)-3-(8-(2-(2,6-dioxopiperidin-3-yl)-1-oxoisoindolin-4-yl)oct-7-ynoyl)-6-oxodecahydropyrrolo[1,2-a][1,5]diazocin-5-yl)carbamoyl)benzo[b]thiophen-5-yl)difluoromethyl)phosphonic acid]	100 nM	170 nM
NC(=O)CC[C@H](NC(=O)[C@@H]1CC[C@@H]2CCN(C(=O)CCCCCC#Cc3cccc4c3CN(C3CCC(=O)NC3=O)C4=O)C[C@H](NC(=O)c3cc4cc(C(F)(F)P(=O)(O)O)ccc4s3)C(=O)N21)c1nc(-c2ccccc2)cs1 (stereo partly drawn) [Cpd. No. 4, ((2-(((5S,8S,10aR)-8-(((S)-4-amino-4-oxo-1-(4-phenylthiazol-2-yl)butyl)carbamoyl)-3-(8-(2-(2,6-dioxopiperidin-3-yl)-1-oxoisoindolin-4-yl)oct-7-ynoyl)-6-oxodecahydropyrrolo[1,2-a][1,5]diazocin-5-yl)carbamoyl)benzo[b]thiophen-5-yl)difluoromethyl)phosphonic acid]	200 nM	140 nM
NC(=O)CC[C@H](NC(=O)[C@@H]1CC[C@@H]2CCN(C(=O)CCCCCC#Cc3cccc4c3CN(C3CCC(=O)NC3=O)C4=O)C[C@H](NC(=O)c3cc4cc(C(F)(F)P(=O)(O)O)ccc4s3)C(=O)N21)c1ncc(Cc2ccccc2)s1 (stereo partly drawn) [Cpd. No. 5, ((2-(((5S,8S,10aR)-8-(((S)-4-amino-1-(5-benzylthiazol-2-yl)-4-oxobutyl)carbamoyl)-3-(8-(2-(2,6-dioxopiperidin-3-yl)-1-oxoisoindolin-4-yl)oct-7-ynoyl)-6-oxodecahydropyrrolo[1,2-a][1,5]diazocin-5-yl)carbamoyl)benzo[b]thiophen-5-yl)difluoromethyl)phosphonic acid]	100 nM	49 nM
NC(=O)CC[C@H](NC(=O)[C@@H]1CC[C@@H]2CCN(C(=O)CCCCCC#Cc3cccc4c3CN(C3CCC(=O)NC3=O)C4=O)C[C@H](NC(=O)c3cc4cc(C(F)(F)P(=O)(O)O)ccc4s3)C(=O)N21)c1nc2c(s1)Cc1ccccc1-2 (stereo partly drawn) [Cpd. No. 6, ((2-(((5S,8S,10aR)-8-(((S)-4-amino-1-(8H-indeno[1,2-d]thiazol-2-yl)-4-oxobutyl)carbamoyl)-3-(8-(2-(2,6-dioxopiperidin-3-yl)-1-oxoisoindolin-4-yl)oct-7-ynoyl)-6-oxodecahydropyrrolo[1,2-a][1,5]diazocin-5-yl)carbamoyl)benzo[b]thiophen-5-yl)difluoromethyl)phosphonic acid]	100 nM	64 nM
NC(=O)CC[C@H](NC(=O)[C@@H]1CC[C@@H]2CCN(C(=O)CCCCCC#Cc3cccc4c3CN(C3CCC(=O)NC3=O)C4=O)C[C@H](NC(=O)c3cc4cc(C(F)(F)P(=O)(O)O)ccc4s3)C(=O)N21)c1ncc(-c2ccc(Cl)cc2)s1 (stereo partly drawn) [Cpd. No. 7, ((2-(((5S,8S,10aR)-8-(((S)-4-amino-1-(5-(4-chlorophenyl)thiazol-2-yl)-4-oxobutyl)carbamoyl)-3-(8-(2-(2,6-dioxopiperidin-3-yl)-1-oxoisoindolin-4-yl)oct-7-ynoyl)-6-oxodecahydropyrrolo[1,2-a][1,5]diazocin-5-yl)carbamoyl)benzo[b]thiophen-5-yl)difluoromethyl)phosphonic acid]	50 nM	
NC(=O)OC[C@H](NC(=O)[C@@H]1CC[C@@H]2CCN(C(=O)CCCCCC#Cc3cccc4c3CN(C3CCC(=O)NC3=O)C4=O)C[C@H](NC(=O)c3cc4cc(C(F)(F)P(=O)(O)O)ccc4s3)C(=O)N21)c1ncc(-c2ccccc2)s1 (stereo partly drawn) [Cpd. No. 8, ((2-(((5S,8S,10aR)-8-(((S)-2-(carbamoyloxy)-1-(5-phenylthiazol-2-yl)ethyl)carbamoyl)-3-(8-(2-(2,6-dioxopiperidin-3-yl)-1-oxoisoindolin-4-yl)oct-7-ynoyl)-6-oxodecahydropyrrolo[1,2-a][1,5]diazocin-5-yl)carbamoyl)benzo[b]thiophen-5-yl)difluoromethyl)phosphonic acid]	100 nM	13 nM
NC(=O)CC[C@H](NC(=O)[C@@H]1CC[C@@H]2CCN(C(=O)CCCCCC#Cc3cccc4c3CN(C3CCC(=O)NC3=O)C4=O)C[C@H](NC(=O)c3cc4cc(C(F)(F)P(=O)(O)O)ccc4s3)C(=O)N21)c1ncc(-c2ccc(F)cc2)s1 (stereo partly drawn) [Cpd. No. 9, ((2-(((5S,8S,10aR)-8-(((S)-4-amino-1-(5-(4-fluorophenyl)thiazol-2-yl)-4-oxobutyl)carbamoyl)-3-(8-(2-(2,6-dioxopiperidin-3-yl)-1-oxoisoindolin-4-yl)oct-7-ynoyl)-6-oxodecahydropyrrolo[1,2-a][1,5]diazocin-5-yl)carbamoyl)benzo[b]thiophen-5-yl)difluoromethyl)phosphonic acid]	50 nM	60 nM
NC(=O)CC[C@H](NC(=O)[C@@H]1CC[C@@H]2CCN(C(=O)CCCCCC#Cc3cccc4c3CN(C3CCC(=O)NC3=O)C4=O)C[C@H](NC(=O)c3cc4cc(C(F)(F)P(=O)(O)O)ccc4s3)C(=O)N21)c1nc(-c2ccc(F)c(F)c2)cs1 (stereo partly drawn) [Cpd. No. 11, ((2-(((5S,8S,10aR)-8-(((S)-4-amino-1-(4-(3,4-difluorophenyl)thiazol-2-yl)-4-oxobutyl)carbamoyl)-3-(8-(2-(2,6-dioxopiperidin-3-yl)-1-oxoisoindolin-4-yl)oct-7-ynoyl)-6-oxodecahydropyrrolo[1,2-a][1,5]diazocin-5-yl)carbamoyl)benzo[b]thiophen-5-yl)difluoromethyl)phosphonic acid]	100 nM	
NC(=O)CC[C@H](NC(=O)[C@@H]1CC[C@@H]2CCN(C(=O)CCCCCC#Cc3cccc4c3CN(C3CCC(=O)NC3=O)C4=O)C[C@H](NC(=O)c3cc4cc(C(F)(F)P(=O)(O)O)ccc4s3)C(=O)N21)c1nc(-c2ccc(F)cc2)cs1 (stereo partly drawn) [Cpd. No. 12, ((2-(((5S,8S,10aR)-8-(((S)-4-amino-1-(4-(4-fluorophenyl)thiazol-2-yl)-4-oxobutyl)carbamoyl)-3-(8-(2-(2,6-dioxopiperidin-3-yl)-1-oxoisoindolin-4-yl)oct-7-ynoyl)-6-oxodecahydropyrrolo[1,2-a][1,5]diazocin-5-yl)carbamoyl)benzo[b]thiophen-5-yl)difluoromethyl)phosphonic acid]	100 nM	
NC(=O)CC[C@H](NC(=O)[C@@H]1CC[C@@H]2CCN(C(=O)CCCCCC#Cc3cccc4c3CN(C3CCC(=O)NC3=O)C4=O)C[C@H](NC(=O)c3cc4cc(C(F)(F)P(=O)(O)O)ccc4s3)C(=O)N21)c1nc(-c2ccc(Cl)cc2)cs1 (stereo partly drawn) [Cpd. No. 13, ((2-(((5S,8S,10aR)-8-(((S)-4-amino-1-(4-(4-chlorophenyl)thiazol-2-yl)-4-oxobutyl)carbamoyl)-3-(8-(2-(2,6-dioxopiperidin-3-yl)-1-oxoisoindolin-4-yl)oct-7-ynoyl)-6-oxodecahydropyrrolo[1,2-a][1,5]diazocin-5-yl)carbamoyl)benzo[b]thiophen-5-yl)difluoromethyl)phosphonic acid]	100 nM	
CC(C)(C)c1cnc([C@H](CCC(N)=O)NC(=O)[C@@H]2CC[C@@H]3CCN(C(=O)CCCCCC#Cc4cccc5c4CN(C4CCC(=O)NC4=O)C5=O)C[C@H](NC(=O)c4cc5cc(C(F)(F)P(=O)(O)O)ccc5s4)C(=O)N32)s1 (stereo partly drawn) [Cpd. No. 15, ((2-(((5S,8S,10aR)-8-(((S)-4-amino-1-(5-(tert-butyl)thiazol-2-yl)-4-oxobutyl)carbamoyl)-3-(8-(2-(2,6-dioxopiperidin-3-yl)-1-oxoisoindolin-4-yl)oct-7-ynoyl)-6-oxodecahydropyrrolo[1,2-a][1,5]diazocin-5-yl)carbamoyl)benzo[b]thiophen-5-yl)difluoromethyl)phosphonic acid]	500 nM	
CC(C)(C)c1ccc(-c2cnc([C@H](CCC(N)=O)NC(=O)[C@@H]3CC[C@@H]4CCN(C(=O)CCCCCC#Cc5cccc6c5CN(C5CCC(=O)NC5=O)C6=O)C[C@H](NC(=O)c5cc6cc(C(F)(F)P(=O)(O)O)ccc6s5)C(=O)N43)s2)cc1 (stereo partly drawn) [Cpd. No. 17, ((2-(((5S,8S,10aR)-8-(((S)-4-amino-1-(5-(4-(tert-butyl)phenyl)thiazol-2-yl)-4-oxobutyl)carbamoyl)-3-(8-(2-(2,6-dioxopiperidin-3-yl)-1-oxoisoindolin-4-yl)oct-7-ynoyl)-6-oxodecahydropyrrolo[1,2-a][1,5]diazocin-5-yl)carbamoyl)benzo[b]thiophen-5-yl)difluoromethyl)phosphonic acid]	200 nM	
